The values that follow come from US10987357B2, “Aerosolized fluoroquinolones and uses thereof” (Horizon Orphan, LLC, priority 2005, dated 2021).

Molecules are shown by their SMILES. Values after ≈ are worked out from the molar mass of the structure shown. Values joined by “and” are separate entries in the source; they are usually repeats but may differ in a detail not shown here. Equal entries are not always repeated. Structures can show the parent of a compound that is named as a salt. Where two headings read alike, the source gives them in different places.

The conditions of data set [1]: in vivo; cited from earlier work.
For data set [2] the following is noted: in vivo. On the procedure: In the second test, the tolerability and taste of a small aerosol sample from a 0.5 ml aliquot of the test formulation was determined in a single healthy human volunteer, following nebulization in a PARI eFlow nebulizer (Table 12).
The tolerability and taste of the drug during a very brief administration period and for a period of 10 minutes post administration were monitored. Tolerability parameters were of the following types: (i) cough, cough sensation, or sneezing (ii) irritation, burning or tightness of throat, (ii) irritation or runniness in nasal passages or eyes, (iii) irritation, burning or tightness of the lungs or shortness of breadth, and (iv) dizziness, headache, nausea or other systemic effects.

For data set [3] the following is noted: 750 mg oral dose; cited from earlier work.
For data set [4], the system named is methicillin resistant Staphylococcus aureus (MRSA). Conditions: Table 6; cited from earlier work.
For data set [5] the following is noted: in vivo; cited from earlier work. This is another data set of the same source.
Data set [6] relates to P. aeruginosa strain PAM 1723. The experiment in a line: Mouse lung infection efficacy model. As to conditions: Pseudomonas aeruginosa, PAM1723, in Mus musculus.
Description: The inoculum is adjusted to ca. 5×10^6 CFU/ml by correlation of absorbance at 600 nm with predetermined plate counts. […] On day 5, mice are infected by an intratracheal instillation of 0.05 ml of inoculum while under isoflurane anesthesia (5% isoflurane in oxygen running at 4 L/min). […] Mice are sacrificed 1 and 4 hours after treatment, their lungs removed, homogenized and plated to determine colony counts.
For data set [7], the system named is Pseudomonas aeruginosa (Pa). Conditions: cited from earlier work.
A further data set deals with MSSA. As to conditions: Table 6; cited from earlier work.
The subject of data set [8] is Streptococcus pneumonia (Sp). Conditions: Table 6; cited from earlier work.
A short description of data set [9]: Gemifloxacin formulations with organic bases: pH and osmolality. As to conditions: before pH adjustment. The format is physicochemical.
Description: (§1) It was filtered through a 0.45 micron filter.
as §1, §1, §1, §1

A short description of data set [10]: Tolerability of aerosol levofloxacin in a healthy human subject.
A short description of data set [11]: 4 day GLP inhalation toxicology study.
In data set [12] the test system is PAM1032. The format is cell-based, P. aeruginosa. As to conditions: PAM1032, genotype nalB. The source says:
(§2) . Those were chosen based on what is known about conditions and growth of PA in a cystic fibrosis (CF) lung. Four isogenic strains of P. aeruginosa were used for these experiments (Table 2).

Data set [13] in a line: physchem. On the procedure:
This solution was titrated with 1 N HCl. Measured aliquots of HCl were added and the pH recorded after each addition. Titration was continued till a pH of 1.
Vep volume of titrant added till the equivalence point; [OH^−]=hydroxide ion concentration=Kw/[…]; [H^+]=hydronium ion concentration=10^−pH.

The nature of data set [14]: Rat pharmacokinetic model (IV vs microspray aerosol, intratracheal). The format is in vivo, rats. As to conditions: 10 mg/kg; for AUC: epithelial lining fluid (ELF). On the procedure:
[…] Blood samples are taken at various times over 3 hours to determine the plasma pharmacokinetic parameters. […] The plasma and tissue concentrations are determined by an HPLC method and the data are then fit using WinNonlin.

For data set [15], the system named is PAM1020. The experiment in a line: Time-kill, exponentially grown cells (Experiment 1). The format is cell-based, P. aeruginosa. As to conditions: 64 ug/ml ([…] MIC), 10 minutes. On the procedure:
At appropriate times, 1 ml of each exposure culture was centrifuged for 2 minutes, the pellet was washed twice with 1 ml of drug-free MHB, and re-suspended in 1 ml of MHB. The viable cell numbers were enumerated by plating serially diluted samples (in duplicates) on MHB plates by the drop (10 ul) plating method. The limit of detection was 100 CFU/ml. Killing is reported as the log reduction calculated relative to cell count at the time of initiation of antibiotic exposure. Relative antibiotic concentrations (relative to MIC of the corresponding strains) are used.

The nature of data set [16]: 4 day non-GLP ascending dose inhalation toxicology study. Conditions: 24 hours after the last dose.
Data set [17] is described as follows: 28-day GLP inhalation toxicology study.
In data set [18] the test system is PAM1582. Briefly: Levofloxacin MIC of hollow fiber test strain. The format is cell-based. As to conditions: Pseudomonas aeruginosa, read-out: Levofloxacin MIC. The text has this:
Pseudomonas aeruginosa PAM1032 and PAM1582. […]

Data set [19] deals with colony biofilms of PAM1032. The format is cell-based, P. aeruginosa. As to conditions: 10 minutes of exposure. On the procedure: The viable cell numbers were enumerated by plating serially diluted samples (in duplicates) on MHB plates by the drop (10 ul) plating method.
Data set [20] is described as follows: physchem. The source holds these as a separate data set.
Description: The buffers used were HCL (pH 1,2), acetate (pH 4,5), phosphate (pH 6,7,8) and borate (9,10).
Data set [21] concerns PAM1032. The format is cell-based, P. aeruginosa. On the procedure:
Overnight cultures were grown aerobically overnight in Mueller-Hinton Broth and next diluted 1:10000 in MEM which filled growth flasks to the very top. Cultures were grown without shaking to OD˜0.3 at 37° C. […] Other than decreased aeration, antibiotic concentration, time of exposure, and determination of viable cell counts were the same as in Experiments 1 and 2.

For data set [22], the system named is PAM1582. The format is cell-based, Pseudomonas aeruginosa. Conditions: for reduction in bacterial counts: half-life 10 minutes. On the procedure:
(§3) The in vitro pharmacodynamic model consists of a central (analogous “serum” compartment) and peripheral (“extravascular”) compartment. The peripheral compartments consist of artificial capillary units (Unisyn, Hopkinton, Mass.) arranged in series with the central compartment. Each capillary unit has a bundle of small semi-permeable fibers with a molecular size retention of ca. 10,000 MW to allow passage of nutrients but not bacteria. The entire system is set up in a dry heat incubator adjusted to 37° C.
(§4) Both the central and peripheral compartments were filled with Mueller-Hinton broth. Each peripheral compartment (capillary unit and tubing) contained ca. 23 ml of growth medium.
(§5) Bacteria were introduced into the peripheral chamber of the model and allowed to grow for 2 hours prior to the first “dose” of drug. Drug doses were administered into the central compartment and pumped to peripheral chambers by a peristaltic pump. Concentrations in the model declined according to first order elimination (half-life) by dilution of the central compartment with drug free medium introduced by an additional peristaltic pump adjusted to the desired clearance.
(§6) Samples (0.3 ml) were collected from peripheral compartments at various intervals for determination of drug and bacterial concentrations. Samples were collected from the peripheral compartments and assayed for drug concentrations by HPLC.
(§7) Of the resulting dilution, 2.3 ml was injected into each peripheral chamber of the hollow-fiber bioreactors (Unisyn, Hopkinton, Mass.).

Data set [23] concerns PAM1032. The experiment in a line: In vitro pharmacodynamic (hollow fiber) model of infection. The format is cell-based, Pseudomonas aeruginosa. Conditions: for reduction in bacterial counts: half-life 10 minutes. On the procedure: as §3, §4, §5, §6, §7
Data set [24] has as its system PAM1020. Briefly: microbe, parasite or virus in culture. The format is cell-based, P. aeruginosa. Conditions: Pseudomonas aeruginosa, read-out: Levofloxacin MIC.
Description: as §2

The conditions of data set [25]: cited from earlier work.
[26] abbreviates: 1 h, read-out: DeltaLOG CPU 1 hr, route IT, dose 25 mg/kg, 1 hr post-drug administration.
The mark [27] stands for this setting: 4 h, read-out: DeltaLOG CPU 4 hr, route IT, dose 25 mg/kg, 4 hr post-drug administration.
The mark [28] stands for this setting: ip, 1 h, read-out: DeltaLOG CPU 1 hr, route IP, dose 25 mg/kg, 1 hr post-drug administration.

`CC1COc2c(N3CCN(C)CC3)c(F)cc3c(=O)c(C(=O)O)cn1c23` (racemic) [Ofloxacin]: in data set [1], the distribution into sputum is 79%. Also, the “Aerosol Tolerability and Taste” value in [2] is on record as “bitter chemical taste, mild cough sensation”.

`O=C(O)c1cn(C2CC2)c2cc(N3CCNCC3)c(F)cc2c1=O` [Ciprofloxacin]: in data set [3], the “peak concentration, serum” value is around 4.2 µg/mL. Besides, the “time of peak drug concentration, serum” value in data set [3] is 1.5 h. For the same molecule, the “MRSA MIC90” value in data set [4] is 64 µg/mL. Moreover, the “penetration into lung tissues” value in [5] is “much less efficiently than levofloxacin”. For the same molecule, the log reduction at 25 mg/kg in [6] (setting [26]) stood at 2.32; in data set [6] (setting [27]), 1.45; in [6] (setting [28]), 1.59; in [6] (ip, 4 h, read-out: DeltaLOG CPU 4 hr, route IP, dose 25 mg/kg, 4 hr post-drug administration), 0.41. The “Pa MIC90” value in data set [7] (Table 6) was 8 µg/mL. For the same molecule, the “rank of potency against Pa” value in [7] is “most potent”. In the data set with MSSA, the “MSSA MIC90” value was 1 µg/mL. Further, the “Aerosol Tolerability and Taste” value in data set [2] was “very strong, bitter unpleasant”. In addition, the “SP MIC90” value in [8] was 2 µg/mL.

Consider `CO/N=C1\CN(c2nc3c(cc2F)c(=O)c(C(=O)O)cn3C2CC2)CC1CN` (stereo not shown) [Gemifloxacin mesylate], for which, in [9], the “pH of filtered solution in water” value is 4.28 and 4.21 and 4.40 and 4.32 and 4.20.

Take `C[C@H]1COc2c(N3CCN(C)CC3)c(F)cc3c(=O)c(C(=O)O)cn1c23` [Levofloxacin, levofloxacin]: in data set [10] (concentrations greater than 10 mg/ml), the “tolerability of hypotonic solutions for inhalation” value was “poorly tolerated”. Also, in [10] (first test), the overall tolerability result is given as “well tolerated”. For the same molecule, the acute tolerability result in [10] (second test: 4 ml of 18.75 mg/mL, Aerogen Small, estimated RDD 35 mg) was “very comparable to the first test”. Besides, in data set [10] (third test: 4 mL of 18.75 mg/mL, PARI Large, estimated RDD ~55 mg), the “adverse effects in the throat, airway or lungs” value is “no adverse effects in the throat, airway or lungs”. The survival entry in [11] (4 day treatment period) and in data set [17] (28 day treatment period) was “all animals survived” throughout. In addition, the necropsy entry is recorded as “did not show any findings” in data set [11] (after the last dose), “did not show any findings” in data set [16] and “dose related squamous cell hyperplasia of the larynx” in data set [17] (after the last dose). Further, the “Levofloxacin MIC” value in the data set with PAM1032 [12] is 1 µg/mL; with PAM1032 [12] (listed as levofloxacin) it was 1.0 µg/mL. In addition, the “acidic pKa” value in the data set “physchem [13]” is listed as around 1.6. Moreover, in the data set “physchem [13]”, the pKb (as a rule, the Kb on a negative log10 scale, so that one unit is a factor of ten) worked out at 7.7. The pKa (as a rule, the pH at which an ionisable group is half protonated) was below 2 in the data set “physchem [13]” (acidic pKa), 6.3 in “physchem [13]” (pKa), around 6.8 in “physchem [13]” (pKa of the basic site as stated in text) and 5.91 in the data set “physchem [20]”. In addition, in [5], the “penetration into lung tissues” value is “penetrates well into lung tissues”. The “F, % from Lung vs. IV” value in [14] (IT) came to 86%. In addition, the exposure (AUC) – broadly, the area under the concentration-time curve, a measure of exposure – was determined as 12100 ng·h/mL in data set [14] (rat, inhaled or intranasal, IT) and 10500 ng·h/mL in data set [14] (rat, iv). Moreover, the half-life in [14] (rat, in vivo, inhaled or intranasal, IT, read-out: Serum t1/2 (converted)) is 24 min. In data set [14] (rat, serum, inhaled or intranasal, IT), the AUC(0-inf) – broadly, the area under the concentration-time curve extrapolated to infinity – came out at 3280 ng·h/mL. The “maximum killing, decrease in viable cell counts” value with PAM1020 [15] came out at 5.5 log. Moreover, the figures for the log reduction at 25 mg/kg in data set [6] (setting [26]), in data set [6] (setting [27]) and in data set [6] (setting [28]) were 2.48, 1.45 and 1.4, respectively. The MIC in the data set on PAM1582 [18] came out at 32 µg/mL; with PAM1020 [24], 0.25 µg/mL (≈ 0.692 µM). Further, the “maximum observed bactericidal activity against biofilms” value in data set [19] is 99%. For the same molecule, in [2], the “Aerosol Tolerability and Taste” value was “chemical taste, somewhat bitter,”. Also, the “stronger killing at longer exposure intervals (difference)” value with PAM1032 [21] is given as “less than 1 log”. Moreover, the bacterial reduction result is listed as “up to 99.99%” in the data set on PAM1582 [22]; “up to 99.999%” in the data set with PAM1582 [22] (listed as levofloxacin); at most 99.9999% in the data set on PAM1032 [23] (Cmax of both 600 and 1000 ug/ml, strain with MIC of 1 ug/ml). The “reduction in bacterial counts” value in the data set with PAM1582 [22] (Cmax 600 ug/ml) is 3 log; in the data set on PAM1582 [22] (Cmax 1000 ug/ml) it was 4 log; with PAM1032 [23] (Cmax 600 ug/ml), 5 log; in the data set with PAM1032 [23] (Cmax 1000 ug/ml), 5 log. The “time to maximum bactericidal effect” value was 30 min in the data set on PAM1032 [23] (Cmax 600 ug/ml) and at most 10 min in the data set on PAM1032 [23] (Cmax 1000 ug/ml).

With `CCC(=O)O[C@H]1[C@H](O[C@@H]2[C@@H](C)[C@H](O[C@H]3C[C@@](C)(OC)[C@@H](O)[C@H](C)O3)[C@@H](C)C(=O)O[C@H](CC)[C@@](C)(O)[C@H](O)[C@@H](C)C(=O)[C@H](C)C[C@@]2(C)O)O[C@H](C)C[C@@H]1N(C)C` [erythromycin estolate], in [25], the “solubility as fraction of that of the free base” value is on record as “approximately 1/12”.
